Laboratory results reported in ChEMBL document CHEMBL3739333, “Nature of the charged head group dictates the anticancer potential of lithocholic acid-tamoxifen conjugates for breast cancer therapy” (Medchemcomm, 2015).
Active and inactive are the calls of the source. No cut-off for these calls is given here.

What was measured:
[1] = Retention time of the compound by HPLC analysis; assay type: physicochemical
[2] = test system: MDA-MB-231; assay: Cytotoxicity against human ER negative MDA-MB-231 cells after 48 hrs by MTT assay; assay type: functional, cell-based; conditions: MDA-MB-231, 48 h
[3] = test system: MCF7; assay: Cytotoxicity against human MCF7 cells expressing ER after 48 hrs by MTT assay; assay type: functional, cell-based; conditions: MCF7, 48 h
[4] = test system: MDA-MB-468; assay: Cytotoxicity against human ER negative MDA-MB-468 cells after 48 hrs by MTT assay; assay type: functional, cell-based; conditions: MDA-MB-468, 48 h
[5] = test system: T47D; assay: Cytotoxicity against human T47D cells expressing ER after 48 hrs by MTT assay; assay type: functional, cell-based
[6] = test system: MCF7; assay: Cell cycle arrest in human MCF7 cells expressing ER assessed as accumulation of sub-G0 phase after 48 hrs by FACS analysis; assay type: functional, cell-based
[7] = test system: Lipid bilayer; assay: Binding affinity to DPPC membranes assessed as changes in membrane fluidity of liposomes by measuring fluorescence anisotropy; conditions: Liposome; TDE = time-dependent effect
[8] = test system: MCF7; assay: Induction of apoptosis in human MCF7 cells expressing ER assessed as change in mitochondrial membrane potential at 10 to 20 uM after 48 hrs using DiOC6 dye based FACS analysis; assay type: functional, cell-based
[9] = test system: MDA-MB-231; assay: Cell cycle arrest in human ER negative MDA-MB-231 cells assessed as accumulation of sub-G0 phase after 48 hrs by FACS analysis; assay type: functional, cell-based
[10] = Binding affinity to model membranes using Laurdan-based hydration assessed as changes in generalized polarization after 6 hrs
[11] = test system: Lipid bilayer; assay: Binding affinity to DPPC membranes assessed as lowering of phase transition temperature
[12] = test system: MCF7; assay: Drug uptake in human MCF7 cells expressing ER; assay type: ADME, cell-based
[13] = test system: MDA-MB-231; assay: Drug uptake in human ER negative MDA-MB-231 cells; assay type: ADME, cell-based
[14] = test system: MDA-MB-231; assay: Induction of apoptosis in human ER negative MDA-MB-231 cells assessed as increase of ROS level at 20 uM after 60 mins using DCFDA relative to control; assay type: functional
[15] = test system: MDA-MB-468; assay: Ratio of tamoxifen IC50 to compound IC50 for human ER negative MDA-MB-468 cells after 48 hrs by MTT assay; assay type: functional
[16] = test system: MCF7; assay: Decrease in caspase-7 level in human MCF7 cells expressing ER at 10 uM after 48 hrs by Western blot analysis; assay type: functional, cell-based
[17] = test system: MCF7; assay: Cell cycle arrest in human MCF7 cells expressing ER assessed as accumulation of sub-G0 phase at 20 uM after 48 hrs by FACS analysis relative to control; assay type: functional
[18] = test system: MDA-MB-231; assay: Induction of apoptosis in human ER negative MDA-MB-231 cells assessed as effect of Bcl-xL protein expression at 10 uM after 48 hrs by Western blot analysis; assay type: functional, cell-based
[19] = test system: MCF7; assay: Induction of apoptosis in human MCF7 cells expressing ER assessed as decrease of Bcl-xL protein expression at 10 uM after 48 hrs by Western blot analysis; assay type: functional, cell-based
[20] = test system: MDA-MB-231; assay: Induction of apoptosis in human ER negative MDA-MB-231 cells assessed as increase of cleaved caspase 7 level at 10 uM after 48 hrs by Western blot analysis; assay type: functional, cell-based
[21] = test system: MDA-MB-231; assay: Induction of apoptosis in human ER negative MDA-MB-231 cells assessed as change in mitochondrial membrane potential at 10 to 20 uM after 48 hrs using DiOC6 dye based FACS analysis; assay type: functional, cell-based
[22] = test system: MCF7; assay: Induction of apoptosis in human MCF7 cells expressing ER assessed as effect of Bax protein expression at 10 uM after 48 hrs by Western blot analysis; assay type: functional, cell-based
[23] = test system: MDA-MB-231; assay: Induction of apoptosis in human ER negative MDA-MB-231 cells assessed as increase of cleaved caspase 6 level at 10 uM after 48 hrs by Western blot analysis; assay type: functional, cell-based
[24] = test system: MCF7; assay: Decrease in active-caspase-8 level in human MCF7 cells expressing ER at 10 uM after 48 hrs by Western blot analysis; assay type: functional, cell-based
[25] = test system: MCF7; assay: Decrease in caspase-6 level in human MCF7 cells expressing ER at 10 uM after 48 hrs by Western blot analysis; assay type: functional, cell-based
[26] = test system: MDA-MB-231; assay: Induction of apoptosis in human ER negative MDA-MB-231 cells assessed as increase of Bax protein expression at 10 uM after 48 hrs by Western blot analysis; assay type: functional, cell-based
[27] = test system: MDA-MB-231; assay: Induction of apoptosis in human ER negative MDA-MB-231 cells assessed as increase of cleaved caspase 8 level at 10 uM after 48 hrs by Western blot analysis; assay type: functional, cell-based
[28] = test system: MDA-MB-231; assay: Induction of apoptosis in human ER negative MDA-MB-231 cells assessed as effect on caspase 9 level at 10 uM after 48 hrs by Western blot analysis; assay type: functional, cell-based
[29] = test system: T47D; assay: Ratio of tamoxifen IC50 to compound IC50 for human ER positive T47D cells after 48 hrs by MTT assay; assay type: functional
[30] = test system: MCF7; assay: Induction of apoptosis in human MCF7 cells expressing ER assessed as effect on caspase 9 level at 10 uM after 48 hrs by Western blot analysis; assay type: functional, cell-based
[31] = test system: MCF7; assay: Induction of apoptosis in human MCF7 cells expressing ER assessed as increase of ROS level at 20 uM after 60 mins using DCFDA relative to control; assay type: functional, cell-based
[32] = test system: MDA-MB-231; assay: Cell cycle arrest in human ER negative MDA-MB-231 cells assessed as accumulation of sub-G0 phase at 20 uM after 48 hrs by FACS analysis relative to control; assay type: functional
[33] = test system: MDA-MB-231; assay: Ratio of tamoxifen IC50 to compound IC50 for human ER negative MDA-MB-231 cells after 48 hrs by MTT assay; assay type: functional
[34] = test system: MCF7; assay: Induction of apoptosis in human MCF7 cells expressing ER assessed as decrease of Bcl-2 protein expression at 10 uM after 48 hrs by Western blot analysis; assay type: functional, cell-based
[35] = test system: MDA-MB-231; assay: Induction of apoptosis in human ER negative MDA-MB-231 cells assessed as decrease of Bcl-2 protein expression at 10 uM after 48 hrs by Western blot analysis; assay type: functional, cell-based
[36] = test system: MCF7; assay: Decrease in pro-caspase-8 level in human MCF7 cells expressing ER at 10 uM after 48 hrs by Western blot analysis; assay type: functional, cell-based

Structure (SMILES): CC/C(=C(\c1ccccc1)c1ccc(OCCN(C)C(=O)CC[C@@H](C)[C@H]2CC[C@H]3[C@@H]4CC[C@@H]5C[C@H](OC(=O)C[N+]6(C)CCOCC6)CC[C@]5(C)[C@H]4CC[C@]23C)cc1)c1ccccc1.[Cl-]
- Retention_time [1]: 6.741 min
- IC50 [2]: 48.2 µM
- IC50 [3]: 43.6 µM
- IC50 [4]: 15.3 µM
- IC50 [5]: 45.2 µM

Structure (SMILES): CC/C(=C(\c1ccccc1)c1ccc(OCCN(C)C(=O)CC[C@@H](C)[C@H]2CC[C@H]3[C@@H]4CC[C@@H]5C[C@H](OC(=O)C[N+]6(C)CCCCC6)CC[C@]5(C)[C@H]4CC[C@]23C)cc1)c1ccccc1.[Cl-]
- Retention_time [1]: 6.767 min
- IC50 [2]: 9.2 µM
- IC50 [3]: 24.5 µM
- IC50 [4]: 7.6 µM
- IC50 [5]: 9.8 µM

Structure (SMILES): CC/C(=C(\c1ccccc1)c1ccc(OCCN(C)C(=O)CC[C@@H](C)[C@H]2CC[C@H]3[C@@H]4CC[C@@H]5C[C@H](OC(=O)C[n+]6ccccc6)CC[C@]5(C)[C@H]4CC[C@]23C)cc1)c1ccccc1.[Cl-]
- Retention_time [1]: 7.033 min
- IC50 [2]: 18 µM
- IC50 [3]: > 50 µM
- IC50 [4]: 13.6 µM
- IC50 [5]: 17.4 µM

Structure (SMILES): C[C@H](CCC(=O)O)[C@H]1CC[C@H]2[C@@H]3CC[C@@H]4C[C@H](OC(=O)C[n+]5ccc(N(C)C)cc5)CC[C@]4(C)[C@H]3CC[C@]12C
- Activity [6]: Dose-dependent effect
- Activity [7]: tde
- Activity [8]: inactive
- Activity [9]: Dose-dependent effect
- IC50 [2]: 13.7 µM
- IC50 [3]: 43.4 µM
- IC50 [4]: 9.1 µM
- Activity [10]: inactive
- IC50 [5]: 13.3 µM
- Activity [11]: Active

Structure (SMILES): CC/C(=C(\c1ccccc1)c1ccc(OCCN(C)C(=O)CC[C@@H](C)[C@H]2CC[C@H]3[C@@H]4CC[C@@H]5C[C@H](OC(=O)C[N+](C)(C)C)CC[C@]5(C)[C@H]4CC[C@]23C)cc1)c1ccccc1.[Cl-]
- Retention_time [1]: 6.676 min
- IC50 [2]: 18.1 µM
- IC50 [3]: 28.9 µM
- IC50 [4]: 15 µM
- IC50 [5]: 8.1 µM

Structure (SMILES): CC/C(=C(\c1ccccc1)c1ccc(OCCN(C)C(=O)CC[C@@H](C)[C@H]2CC[C@H]3[C@@H]4CC[C@@H]5C[C@H](OC(=O)C[N+]67CCN(CC6)CC7)CC[C@]5(C)[C@H]4CC[C@]23C)cc1)c1ccccc1.[Cl-]
- Retention_time [1]: 6.735 min
- IC50 [2]: 20 µM
- IC50 [3]: > 50 µM
- IC50 [4]: 20.9 µM
- IC50 [5]: 17.9 µM

Structure (SMILES): CC/C(=C(\c1ccccc1)c1ccc(OCCN(C)C(=O)CC[C@@H](C)[C@H]2CC[C@H]3[C@@H]4CC[C@@H]5C[C@H](OC(=O)C[N+]6(C)CCCC6)CC[C@]5(C)[C@H]4CC[C@]23C)cc1)c1ccccc1.[Cl-]
- Retention_time [1]: 6.79 min
- IC50 [2]: 12.6 µM
- IC50 [3]: 24 µM
- IC50 [4]: 6.61 µM
- IC50 [5]: 8.4 µM

Structure (SMILES): CC/C(=C(\c1ccccc1)c1ccc(OCCN(C)c2ccc([N+](=O)[O-])c3nonc23)cc1)c1ccccc1
- Drug uptake [12]: Active
- Drug uptake [13]: Active

Structure (SMILES): CC/C(=C(\c1ccccc1)c1ccc(OCCN(C)C(=O)CC[C@@H](C)[C@H]2CC[C@H]3[C@@H]4CC[C@@H]5C[C@H](OC(=O)C[n+]6ccc(N(C)C)cc6)CC[C@]5(C)[C@H]4CC[C@]23C)cc1)c1ccccc1.[Cl-]
- Activity [6]: Dose-dependent effect
- Retention_time [1]: 6.837 min
- Activity [7]: tde
- Activity [8]: inactive
- fold change (FC) [14]: 2.3
- Ratio IC50 [15]: 4
- inhibition [16]: Active
- fold change (FC) [17]: 6
- Activity [9]: Dose-dependent effect
- Activity [18]: inactive
- Activity [19]: Active
- Activity [20]: Active
- Activity [21]: Active
- Activity [22]: inactive
- IC50 [2]: 6.5 µM
- Activity [23]: Active
- inhibition [24]: Active
- inhibition [25]: Active
- Activity [26]: Active
- Activity [27]: Active
- Activity [28]: inactive
- Ratio IC50 [29]: 4
- Activity [30]: inactive
- Activity [31]: inactive
- IC50 [3]: 12.7 µM
- fold change (FC) [32]: 5
- Ratio IC50 [33]: 4
- IC50 [4]: 3.13 µM
- Activity [34]: Active
- Activity [35]: Active
- Activity [10]: Active
- IC50 [5]: 7 µM
- inhibition [36]: Active
- Activity [11]: Active

Structure (SMILES): CC/C(=C(\c1ccccc1)c1ccc(OCCN(C)C(=O)CC[C@@H](C)[C@H]2CC[C@H]3[C@@H]4CC[C@@H]5C[C@H](OC(=O)CN)CC[C@]5(C)[C@H]4CC[C@]23C)cc1)c1ccccc1
- Activity [7]: tde
- IC50 [2]: > 50 µM
- IC50 [3]: > 50 µM
- IC50 [4]: > 50 µM
- Activity [10]: Active
- IC50 [5]: > 50 µM

Structure (SMILES): CC/C(=C(\c1ccccc1)c1ccc(OCCN(C)C)cc1)c1ccccc1 [TAMOXIFEN]
- Activity [6]: Dose-dependent effect
- Activity [7]: tde
- Activity [8]: inactive
- fold change (FC) [14]: 1.8
- fold change (FC) [17]: 2
- Activity [9]: Dose-dependent effect
- Activity [21]: inactive
- IC50 [2]: 27 µM
- fold change (FC) [32]: 3
- IC50 [4]: 15 µM
- Activity [10]: inactive
- IC50 [5]: 29.9 µM
- Activity [11]: inactive

Structure (SMILES): C[C@H](CCC(=O)NCc1cn(CCNc2ccc([N+](=O)[O-])c3nonc23)nn1)[C@H]1CC[C@H]2[C@@H]3CC[C@@H]4C[C@H](OC(=O)C[n+]5ccc(N(C)C)cc5)CC[C@]4(C)[C@H]3CC[C@]12C.[Cl-]
- Drug uptake [12]: Active
- Drug uptake [13]: Active
